Assay results from patent publication US10544131B2, “MCL-1 antagonists” (The Regents of the University of California, priority 2014, dated 2020).
Entries after “also recorded” stand apart in the source; their conditions may differ.

Columns and labels:
[1] = stability of the neat substance; assay type: physicochemical; conditions: in words
Mcl-1/Bak PPI = assay: liposome functional assay for Mcl-1/Bak (calcein release, MOMP model); assay type: biochemical; conditions: in words
Text: The Shore lab has developed a functional assay utilizing recombinant proteins anchored in artificial liposomes that enables the evaluation of small-molecules to disrupt the Mcl-1/Bak PPI (FIG. 2A). In this assay, full-length functional single cysteine mutants of Mcl-1 and Bak were anchored into lipids (with PE's) utilizing the engineered cysteine residues as a handle. This allows Applicants to recapitulate Bak-mediated mitochondrial permeabilization and measure the various protein-protein and protein-membrane interactions involved in Mcl-1 regulation of Bak. The release of calcenin (Cn) dye encapsulated in the liposome was used to quantify membrane permeabilization. When the system is untreated, Mcl-1 sequesters Bak by engaging its BH3 domain. Incubation with an active inhibitor neutralizes Mcl-1. This triggers Bak auto-oligomerization resulting in the formation of pores in the lipid membrane and release of Cn. By measuring […] from Cn, Applicants can quantify antagonism of Mcl-1 in real time.
(§1) Synthetic 3, along with numerous intermediates and their derivatives were assayed in a model system for mitochondrial outer membrane permeabilization (MOMP). This liposome based experiment recapitulates a signaling axis involving pro-apoptotic Bak, anti-apoptotic Mcl-1, and an active, truncated 15 kDa subunit of the pro-death protein Bid (tBid).^11 Bak and Mcl-1 are transmembrane proteins constitutively anchored in the mitochondrial outer membrane. tBid translocates to mitochondria upon cleavage of Bid by caspase-8 and stimulates MOMP by directly activating free Bak and by disengaging any activated Bak from Mcl-1. Applicants' assay mimics these events using recombinant, lipidated Mcl-1 and Bak that are constitutively bound to unilamellar liposomes encapsulating calcein dye. tBid addition initiates Bak homo oligomerization and pore formations, which in turn results in calcein release and a fluorescence signal. Mcl-1 counters this tBid dependent activation of Bak, which is overcome by small molecule Mcl-1 antagonists (FIG. 6).

human KMS-11 cells = assay: cytotoxicity in cell culture, KMS-11; assay type: cell-based; conditions: 1.0 μM concentration
[2] = system: human KMS-11 myeloid leukemia cells; assay: cytotoxicity in cell culture, KMS-11; assay type: cell-based; conditions: KMS-11 cells, single dose, in words
recombinant Mcl-1 = biological target: T1, recombinant Mcl-1 (Homo sapiens, UniProt Q07820); assay: isothermal titration microcalorimetry (ITC) with purified recombinant Mcl-1; assay type: binding; conditions: for binding / affinity for Mcl-1 measurable by ITC: purified recombinant Mcl-1, in words
T1 construct: made in house; host or cells: E. coli
T1 sequence (Q07820 whole entry): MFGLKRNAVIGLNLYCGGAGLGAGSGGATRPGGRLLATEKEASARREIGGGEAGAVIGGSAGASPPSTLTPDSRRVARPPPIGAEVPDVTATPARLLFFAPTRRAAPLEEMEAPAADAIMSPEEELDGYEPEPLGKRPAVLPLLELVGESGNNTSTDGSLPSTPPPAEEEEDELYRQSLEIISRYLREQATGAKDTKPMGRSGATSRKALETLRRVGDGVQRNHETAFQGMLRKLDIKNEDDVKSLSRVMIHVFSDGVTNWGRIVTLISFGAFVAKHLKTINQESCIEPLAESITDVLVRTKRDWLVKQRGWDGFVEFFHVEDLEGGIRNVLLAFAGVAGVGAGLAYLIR

[3] = system: Ep-myc (myr) Akt lymphoma cells; assay: mouse lymphoma model with and without doxorubicin, tumor-free survival; assay type: in vivo, C57BL/6 mice
Experimental: C57BL/6 mice were tail-vein injected with Ep-myc (myr) Akt lymphoma cells and palpable tumors (multiple sites per animal) allowed to develop. Animals were randomized for tumor burden and treated by intraperitoneal (IP) injection with vehicle, or vehicle containing obatoclax (10 mg/kg) or JHF3056 (40 mg/kg) daily×5. In addition, animals received a single injection of doxorubicin (IP, 10 mg/kg) on day 2 of the injection regimen, either alone or in combination with the obatoclax (9) or JHF3056 (10) regimen. Animals were allowed to become tumor-free (no observable palpable tumors) and then tumor-free survival was measured (time to re-appearance of tumors).

truncated Bid = assay: binding to truncated Bid; conditions: data not shown
Text: (§2) Recombinant Mcl-1 was expressed and purified from E. coli.

[4] = in vivo toxicity (minimum toxic dose)
Bak = assay: liposome assay with Bak-loaded proteoliposomes lacking Mcl-1; assay type: biochemical; conditions: Bak loaded proteoliposomes without Mcl-1
Experimental: as §1, §2
(§3) Moreover, when Mcl-1 was replaced with Bcl-xL in the assay, 12 also had no effect (FIG. 10). […] Toxic thrombocytopenia caused by ABT-737 in vivo has been correlated with Bcl-xL inhibition.^25

Bcl-xL = Bcl-xL (Homo sapiens, UniProt Q07817); assay: liposome assay with Bcl-xL in place of Mcl-1; assay type: biochemical
Bcl-xL, sequence (Q07817 whole entry, species assumed): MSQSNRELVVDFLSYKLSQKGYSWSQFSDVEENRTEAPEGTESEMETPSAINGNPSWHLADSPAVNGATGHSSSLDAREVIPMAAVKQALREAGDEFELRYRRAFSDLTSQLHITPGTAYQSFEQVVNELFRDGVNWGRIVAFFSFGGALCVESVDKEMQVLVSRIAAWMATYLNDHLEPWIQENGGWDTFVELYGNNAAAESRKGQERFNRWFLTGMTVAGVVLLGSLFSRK
Text: as §3

COc1cc(-c2c(Cl)ccn2S(=O)(=O)c2ccc(C)cc2)oc1C(C)=O [JHF3056, 1-(5-(3-chloro-1-tosyl-1H-pyrrol-2-yl)-3-methoxyfuran-2-yl)ethan-1-one]
stability [1]: stable solid | stability ([1]; listed as 5): bench stable solid | antagonism of Mcl-1 / Bak-mediated permeabilization of liposomal membranes (Mcl-1/Bak PPI): capacity to antagonize the Mcl-1/Bak PPI; also recorded: directly antagonizes Mcl-1; also recorded: superior performance of JHF3056 (10) relative to 8 and 9 | antagonism of Mcl-1 / Bak-mediated permeabilization of liposomal membranes (Mcl-1/Bak PPI; listed as 5): counter Mcl-1 activity and promote Bak-mediated permeabilization of liposomal membranes; also recorded: near equipotent to 4 | antagonism of Mcl-1 / Bak-mediated permeabilization of liposomal membranes (Mcl-1/Bak PPI; listed as 10): promising activity | cytotoxic activity relative to obatoclax (human KMS-11 cells): enhanced activity relative to obatoclax (9) | cytotoxicity [2]: cytotoxic at micromolar concentrations; also recorded: sub-micromolar cytotoxicity | cytotoxicity ([2]; listed as 10): sub-micromolar single dose cytotoxicity | binding / affinity for Mcl-1 measurable by ITC (recombinant Mcl-1; listed as 5): Neither 2 nor 5 demonstrated measurable affinity | anti-tumor activity in combination with doxorubicin ([3]; JHF3056 40 mg/kg IP daily×5, doxorubicin 10 mg/kg IP day 2): sensitizes lymphoma tumor xenografts to doxorubicin | anti-tumor activity in combination with doxorubicin ([3]; JHF3056 40 mg/kg IP daily×5, doxorubicin 10 mg/kg IP day 2, listed as 10): clear anti-tumor activity in combination with the chemotherapeutic doxorubicin | binding to truncated Bid (truncated Bid): no binding | minimum toxic dose ([4]; in vivo): 80 mg/kg | toxicity at pharmacologically relevant doses ([4]; in words): nontoxic at pharmacologically relevant doses | calcein release from liposomes lacking Mcl-1 (Bak): did not induce release of calcein

COc1cc(-c2c(Cl)ccn2S(=O)(=O)c2ccc(C)cc2)oc1-c1nnn[nH]1 [Compound 12]
MOMP-like pore formation in liposomes containing Bcl-xL (Bcl-xL): no effect; also recorded: did not stimulate MOMP-like pore formations | antagonism of Mcl-1 / Bak-mediated permeabilization of liposomal membranes (Mcl-1/Bak PPI): stimulate Bak-mediated permeabilization of liposomal membranes; also recorded: successfully drove pore formations; also recorded: exceeded that of 5 and obatoclax | Kd (recombinant Mcl-1; purified recombinant Mcl-1): 700 ± 120 nM | binding / affinity for Mcl-1 measurable by ITC (recombinant Mcl-1): strong, saturable binding | calcein release from liposomes lacking Mcl-1 (Bak): did not release calcein dye

COc1cc(-c2[nH]ccc2Cl)oc1C1=C2N=C3C=C2[C@H](C(C)C)[C@H]1CCCCCCCC3 [roseophilin, reference compound]
antagonism of Mcl-1 / Bak-mediated permeabilization of liposomal membranes (Mcl-1/Bak PPI): little activity
